In ChEMBL document CHEMBL1201862, “PubChem BioAssay data set” (2004):
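All cell lines were grown in 96-well plates and treated with compound for 48 hours. GI50 = concentration required for 50% inhibition of growth.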 Activity calls are given as the source filed them. Cut-off read from the data, not from the text of the source: active = GI50 up to about 1.1 µM and inactive = higher.

Columns and labels:
Assay in all cases: NCI tumour cell line growth inhibition, 48 h
SF-539 = tested on: SF-539
RXF 393 = tested on: RXF 393
K562 = tested on: K562
MOLT-4 = tested on: MOLT-4
Hs-578T = tested on: Hs-578T
SK-MEL-5 = tested on: SK-MEL-5
HCT-116 = tested on: HCT-116
NCI-H226 = tested on: NCI-H226
OVCAR-5 = tested on: OVCAR-5
SNB-19 = tested on: SNB-19
COLO 205 = tested on: COLO 205
NCI-H23 = tested on: NCI-H23
786-0 = tested on: 786-0
NCI-H460 = tested on: NCI-H460
EKVX = tested on: EKVX
OVCAR-3 = tested on: OVCAR-3
LOX IMVI = tested on: LOX IMVI
T47D = tested on: T47D
A498 = tested on: A498

Measured: GI50

CN1CCCC(OC(=O)c2cc3cc(CCl)ccc3oc2=O)C1 (centres undefined)
inactive: SF-539 27 µM | RXF 393 23.7 µM | K562 27.9 µM | MOLT-4 29.6 µM | Hs-578T 21.9 µM | SK-MEL-5 17.3 µM | HCT-116 19.2 µM | NCI-H226 23.9 µM | OVCAR-5 21.6 µM | SNB-19 27.7 µM | COLO 205 17.2 µM | NCI-H23 19.3 µM | 786-0 23.8 µM | NCI-H460 19.1 µM | EKVX 31.2 µM | OVCAR-3 14.2 µM | LOX IMVI 17 µM | T47D 32.7 µM

COC(=O)CSC1CC(=O)c2c(Cl)sc(Cl)c21 (centres undefined)
inactive: RXF 393 > 100 µM | K562 > 100 µM | MOLT-4 > 100 µM | Hs-578T > 100 µM | SK-MEL-5 > 100 µM | HCT-116 > 100 µM | OVCAR-5 > 100 µM | SNB-19 > 100 µM | COLO 205 > 100 µM | NCI-H23 > 100 µM | 786-0 > 100 µM | NCI-H460 > 100 µM | EKVX > 100 µM | LOX IMVI > 100 µM | T47D > 100 µM

CCCCCC1=C2C(c3ccc(OC)cc3)=C(N)C(c3ccc(OC)cc3)=C3NC(=O)C(C=C1)C32 (centres undefined)
inactive: A498 43 µM | RXF 393 18.9 µM | K562 42.1 µM | MOLT-4 56.4 µM | SK-MEL-5 > 100 µM | HCT-116 57.5 µM | NCI-H226 21.9 µM | OVCAR-5 > 100 µM | SNB-19 25.4 µM | COLO 205 32.1 µM | NCI-H23 48.4 µM | 786-0 25 µM | NCI-H460 28.1 µM | EKVX 92.3 µM | OVCAR-3 57.1 µM | LOX IMVI 33.9 µM | T47D 70.1 µM

Cc1ccccc1-n1c(=O)c2ncn(CCCl)c2n(-c2ccccc2C)c1=S
inactive: SF-539 > 100 µM | A498 > 100 µM | RXF 393 > 100 µM | K562 > 100 µM | MOLT-4 > 100 µM | SK-MEL-5 > 100 µM | HCT-116 > 100 µM | NCI-H226 > 100 µM | OVCAR-5 > 100 µM | COLO 205 > 100 µM | NCI-H23 > 100 µM | 786-0 > 100 µM | NCI-H460 > 100 µM | EKVX > 100 µM | OVCAR-3 > 100 µM | LOX IMVI > 100 µM | T47D > 100 µM

COc1cc2nc(Nc3cccc(Br)c3)nc(Nc3cccc(Br)c3)c2cc1OC
inactive: RXF 393 18.4 µM | K562 22.8 µM | MOLT-4 20.4 µM | Hs-578T 19.8 µM | SK-MEL-5 17 µM | HCT-116 17.6 µM | OVCAR-5 23.1 µM | SNB-19 16.8 µM | COLO 205 13.9 µM | NCI-H23 17.7 µM | 786-0 17.3 µM | NCI-H460 24.3 µM | EKVX 19.1 µM | OVCAR-3 16.6 µM | LOX IMVI 16.7 µM | T47D 17.1 µM

O=C1Nc2ccccc2/C1=C1/Nc2ccccc2/C1=N\OCCNCC(O)C(O)C(O)C(O)CO (centres undefined)
inactive: SF-539 14.1 µM | RXF 393 12.5 µM | K562 16.3 µM | MOLT-4 12.9 µM | Hs-578T 13.4 µM | SK-MEL-5 8.36 µM | HCT-116 13.4 µM | NCI-H226 13.8 µM | OVCAR-5 > 50 µM | SNB-19 13.6 µM | COLO 205 12.1 µM | NCI-H23 10.4 µM | 786-0 18.1 µM | NCI-H460 18.1 µM | EKVX 30.3 µM | OVCAR-3 11.6 µM | LOX IMVI 8.53 µM | T47D 6.7 µM

COc1ccc(-c2cc(-c3cc4cc(Br)ccc4nc3Cl)c(C#N)c(N)n2)cc1
inactive: SF-539 > 12.5 µM | RXF 393 > 12.5 µM | K562 > 12.5 µM | MOLT-4 9.66 µM | Hs-578T > 12.5 µM | SK-MEL-5 > 12.5 µM | HCT-116 > 12.5 µM | NCI-H226 > 12.5 µM | OVCAR-5 10.7 µM | SNB-19 > 12.5 µM | COLO 205 > 12.5 µM | NCI-H23 > 12.5 µM | 786-0 > 12.5 µM | EKVX > 12.5 µM | OVCAR-3 > 12.5 µM | LOX IMVI > 12.5 µM | T47D > 12.5 µM

COc1ccc(N2C(=O)C3c4[nH]c5ccccc5c4C4CCC(C(C)(C)C)CC4C3C2=O)c(C)c1 (centres undefined)
inactive: SF-539 > 100 µM | RXF 393 > 100 µM | K562 > 100 µM | MOLT-4 > 100 µM | Hs-578T 51.3 µM | SK-MEL-5 > 100 µM | HCT-116 > 100 µM | NCI-H226 > 100 µM | SNB-19 > 100 µM | COLO 205 > 100 µM | NCI-H23 > 100 µM | 786-0 > 100 µM | NCI-H460 > 100 µM | EKVX > 100 µM | OVCAR-3 > 100 µM | T47D > 100 µM
